pIC50: −log10 of the molar value. Active and inactive are the calls of the source. No cut-off for these calls is given here.
Columns and labels:
[1] = system: Caco-2; experiment: Cytotoxicity against human Caco2 cells assessed as inhibition of cell proliferation after 48 hrs by sulforhodamine-B assay; assay type: functional, cell-based; settings: Caco-2, 48 h
[2] = system: THP-1; experiment: Cytotoxicity against human THP1 cells assessed as inhibition of cell proliferation after 48 hrs by sulforhodamine-B assay; assay type: functional, cell-based; settings: THP-1, 48 h
[3] = system: A549; experiment: Cytotoxicity against human A549 cells assessed as inhibition of cell proliferation after 48 hrs by sulforhodamine-B assay; assay type: functional, cell-based; settings: A549, 48 h
[4] = system: PC-3; experiment: Cytotoxicity against human PC3 cells assessed as inhibition of cell proliferation after 48 hrs by sulforhodamine-B assay; assay type: functional, cell-based; settings: PC-3, 48 h
[5] = system: HL-60; experiment: Induction of apoptosis in human HL60 cells assessed as intact mitochondrial membrane potential at 50 uM after 24 hrs by Rhodamine 123 staining based flow cytometry (reference value: 93.6%); assay type: functional
[6] = system: HL-60; experiment: Induction of apoptosis in human HL60 cells assessed as accumulation of DNA at sub-G0 phase at 30 uM after 24 hrs by propidium iodide staining based flow cytometry (Rvb= 4.2%); assay type: functional
[7] = system: HL-60; experiment: Induction of apoptosis in human HL60 cells assessed as accumulation of DNA at sub-G0 phase at 10 uM after 24 hrs by propidium iodide staining based flow cytometry (Rvb= 4.2%); assay type: functional
[8] = system: HL-60; experiment: Induction of apoptosis in human HL60 cells assessed as intact mitochondrial membrane potential at 10 uM after 24 hrs by Rhodamine 123 staining based flow cytometry (reference value: 93.6%); assay type: functional
[9] = system: HL-60; experiment: Induction of apoptosis in human HL60 cells assessed as accumulation of DNA at sub-G0 phase at 100 uM after 24 hrs by propidium iodide staining based flow cytometry (Rvb= 4.2%); assay type: functional
[10] = system: HL-60; experiment: Induction of apoptosis in human HL60 cells assessed as loss of mitochondrial membrane potential at 30 uM after 24 hrs by Rhodamine 123 staining based flow cytometry (reference value: 7%); assay type: functional
[11] = system: HL-60; experiment: Induction of apoptosis in human HL60 cells assessed as DNA fragmentation at 50 uM after 24 hrs by agarose gel electrophoresis analysis; assay type: functional, cell-based
[12] = system: HL-60; experiment: Induction of apoptosis in human HL60 cells assessed as intact mitochondrial membrane potential at 30 uM after 24 hrs by Rhodamine 123 staining based flow cytometry (reference value: 93.6%); assay type: functional
[13] = system: HL-60; experiment: Induction of apoptosis in human HL60 cells assessed as loss of mitochondrial membrane potential at 10 uM after 24 hrs by Rhodamine 123 staining based flow cytometry (reference value: 7%); assay type: functional
[14] = system: HL-60; experiment: Induction of apoptosis in human HL60 cells assessed as condensation and fragmentation of nuclei at 50 to 100 uM after 24 hrs by DAPI staining based fluorescence microscopic analysis; assay type: functional, cell-based
[15] = system: HL-60; experiment: Induction of apoptosis in human HL60 cells assessed as mitochondrial damage and loss of mitochondrial membrane potential after 24 hrs by Rhodamine 123 staining based flow cytometry; assay type: functional, cell-based
[16] = system: HL-60; experiment: Induction of apoptosis in human HL60 cells assessed as accumulation of DNA at sub-G0 phase at 50 uM after 24 hrs by propidium iodide staining based flow cytometry (Rvb= 4.2%); assay type: functional
[17] = system: HL-60; experiment: Induction of apoptosis in human HL60 cells assessed as loss of mitochondrial membrane potential at 50 uM after 24 hrs by Rhodamine 123 staining based flow cytometry (reference value: 7%); assay type: functional
[18] = system: HL-60; experiment: Induction of apoptosis in human HL60 cells assessed as accumulation of DNA at sub-G0 phase at 1 uM after 24 hrs by propidium iodide staining based flow cytometry (Rvb= 4.2%); assay type: functional
[19] = system: HL-60; experiment: Induction of apoptosis in human HL60 cells assessed as intact mitochondrial membrane potential at 1 uM after 24 hrs by Rhodamine 123 staining based flow cytometry (reference value: 93.6%); assay type: functional
[20] = system: HL-60; experiment: Induction of apoptosis in human HL60 cells assessed as loss of mitochondrial membrane potential at 1 uM after 24 hrs by Rhodamine 123 staining based flow cytometry (reference value: 7%); assay type: functional

## Cc1ccc2occ([C@@H]3[C@H]4C(=O)N(c5ccccc5)C(=O)[C@H]4ON3c3ccccc3)c(=O)c2c1
[1]
  pIC50: < 4.22
[2]
  pIC50: < 4.22
[3]
  pIC50: < 4.22
[4]
  pIC50: 4.95

## O=c1c([C@@H]2C[C@H](c3ccccc3)ON2c2ccccc2)coc2ccc(F)cc12 (relative stereo)
[1]
  pIC50: 4.22
[2]
  pIC50: 4.26
[3]
  pIC50: 4.29
[4]
  pIC50: 4.31

## O=c1c([C@@H]2C[C@H](c3ccccc3)ON2c2ccccc2)coc2ccc(Br)cc12 (relative stereo)
[1]
  pIC50: < 4.22
[2]
  pIC50: 4.22
[3]
  pIC50: 4.29
[4]
  pIC50: 4.22

## O=c1c([C@@H]2C[C@H](c3ccccc3)ON2c2ccccc2)coc2cc(Cl)c(Cl)cc12 (relative stereo)
[1]
  pIC50: 4.63
[2]
  pIC50: 4.42
[3]
  pIC50: 4.37
[4]
  pIC50: 4.49

## CCO[C@H]1C[C@@H](c2coc3ccc(F)cc3c2=O)N(c2ccccc2)O1 (relative stereo)
[1]
  pIC50: < 4.22
[2]
  pIC50: < 4.22
[3]
  pIC50: 4.58
[4]
  pIC50: 4.50

## CCO[C@H]1C[C@@H](c2coc3ccc(Br)cc3c2=O)N(c2ccccc2)O1 (relative stereo)
[1]
  pIC50: < 4.22
[2]
  pIC50: < 4.22
[3]
  pIC50: 4.67
[4]
  pIC50: < 4.22

## CCO[C@H]1C[C@@H](c2coc3cc(Cl)c(Cl)cc3c2=O)N(c2ccccc2)O1 (relative stereo)
[1]
  pIC50: < 4.22
[2]
  pIC50: 4.78
[3]
  pIC50: 4.70
[4]
  pIC50: < 4.22

## O=c1c([C@@H]2C[C@H](c3ccncc3)ON2c2ccccc2)coc2ccccc12 (relative stereo)
[1]
  pIC50: 4.43
[2]
  pIC50: 4.79
[3]
  pIC50: 4.71
[4]
  pIC50: 4.34

## COC(=O)[C@@]1(C)C[C@@H](c2coc3ccc(F)cc3c2=O)N(c2ccccc2)O1 (relative stereo)
[1]
  pIC50: 4.53
[2]
  pIC50: 4.33
[3]
  pIC50: 4.69
[4]
  pIC50: 4.50

## COC(=O)[C@@]1(C)C[C@@H](c2coc3ccc(Br)cc3c2=O)N(c2ccccc2)O1 (relative stereo)
[1]
  pIC50: < 4.22
[2]
  pIC50: 4.83
[3]
  pIC50: 5.00
[4]
  pIC50: < 4.22

## COC(=O)[C@@]1(C)C[C@@H](c2coc3ccc(C)cc3c2=O)N(c2ccccc2)O1 (relative stereo)
[1]
  pIC50: 4.71
[5]
  Activity: 45.7%
[6]
  Activity: 41.6%
[7]
  Activity: 4.9%
[8]
  Activity: 92%
[9]
  Activity: 50.2%
[10]
  Activity: 36.6%
[2]
  pIC50: 5.14
[3]
  pIC50: 6.15
[11]
  Activity: Active
[12]
  Activity: 62.9%
[13]
  Activity: 7.9%
[14]
  Activity: Active
[15]
  Activity: Dose-dependent effect
[16]
  Activity: 44.6%
[4]
  pIC50: < 4.22
[17]
  Activity: 53.9%

## O=C1[C@H]2[C@H](ON(c3ccccc3)[C@@H]2c2coc3ccc(F)cc3c2=O)C(=O)N1c1ccccc1 (relative stereo)
[1]
  pIC50: < 4.22
[2]
  pIC50: 4.36
[3]
  pIC50: 4.87
[4]
  pIC50: < 4.22

## O=C1[C@H]2[C@H](ON(c3ccccc3)[C@@H]2c2coc3ccc(Br)cc3c2=O)C(=O)N1c1ccccc1 (relative stereo)
[1]
  pIC50: 4.69
[2]
  pIC50: 4.65
[3]
  pIC50: 4.77
[4]
  pIC50: 4.88

## O=c1c([C@@H]2C[C@H](c3ccccc3)ON2c2ccccc2)coc2ccccc12 (relative stereo)
[1]
  pIC50: < 4.22
[2]
  pIC50: < 4.22
[3]
  pIC50: < 4.22
[4]
  pIC50: < 4.22

## Cc1ccc2occ([C@@H]3C[C@H](c4ccccc4)ON3c3ccccc3)c(=O)c2c1 (relative stereo)
[1]
  pIC50: 4.50
[2]
  pIC50: < 4.22
[3]
  pIC50: 4.31
[4]
  pIC50: < 4.22

## CCO[C@H]1C[C@@H](c2coc3ccccc3c2=O)N(c2ccccc2)O1 (relative stereo)
[1]
  pIC50: < 4.22
[2]
  pIC50: < 4.22
[3]
  pIC50: < 4.22
[4]
  pIC50: < 4.22

## CCO[C@H]1C[C@@H](c2coc3ccc(C)cc3c2=O)N(c2ccccc2)O1 (relative stereo)
[1]
  pIC50: 4.51
[2]
  pIC50: 4.39
[3]
  pIC50: 4.68
[4]
  pIC50: 4.41

## COC(=O)[C@H]1C[C@@H](c2coc3ccccc3c2=O)N(c2ccccc2)O1 (relative stereo)
[1]
  pIC50: < 4.22
[2]
  pIC50: < 4.22
[3]
  pIC50: < 4.22
[4]
  pIC50: < 4.22

## COC(=O)[C@H]1C[C@@H](c2coc3ccc(Cl)cc3c2=O)N(c2ccccc2)O1 (relative stereo)
[1]
  pIC50: < 4.22
[2]
  pIC50: < 4.22
[3]
  pIC50: < 4.22
[4]
  pIC50: < 4.22

## NC(=O)[C@H]1C[C@@H](c2coc3ccccc3c2=O)N(c2ccccc2)O1 (relative stereo)
[1]
  pIC50: < 4.22
[2]
  pIC50: < 4.22
[3]
  pIC50: < 4.22
[4]
  pIC50: < 4.22

## N#C[C@H]1C[C@@H](c2coc3ccc(Cl)cc3c2=O)N(c2ccccc2)O1 (relative stereo)
[1]
  pIC50: 4.41
[2]
  pIC50: 4.46
[3]
  pIC50: 4.40
[4]
  pIC50: 4.39

## Cc1ccc2occ([C@@H]3C[C@H](OCC(C)C)ON3c3ccccc3)c(=O)c2c1 (relative stereo)
[1]
  pIC50: < 4.22
[2]
  pIC50: 4.67
[3]
  pIC50: 4.77
[4]
  pIC50: 4.42

## CC[C@@]1(O)C(=O)OCc2c1cc1n(c2=O)Cc2cc3ccccc3nc2-1 [CAMPTOTHECIN]
[18]
  Activity: 61.8%
[19]
  Activity: 46.1%
[20]
  Activity: 53.3%

## CO[C@@]12[C@H](COC(N)=O)C3=C(C(=O)C(C)=C(N)C3=O)N1C[C@@H]1N[C@@H]12 [MITOMYCIN]
[3]
  pIC50: 6.40

From ChEMBL document CHEMBL3217684, “Synthesis and cytotoxicity evaluation of regioisomeric substituted N-phenyl-3-(chrom-4-one-3-yl)-isoxazolidines: induction of apoptosis through a mitochondrial-dependent pathway” (Medchemcomm, 2013)
